Test results taken from patent US5972933A, “Method of treating microbial infections” (Ed. Geistlich Sohne AG Fur Chemische Industrie, priority 1998, dated 1999).
Converted amounts (≈) assume the structure as drawn. Read-outs that look alike come from different tables or passages of the source.

Columns and labels:
Type in all cases: cell-based
[1] = system: Methicillin-Resistant Staphylococcus aureus (MRSA); assay: Taurolidine MIC by broth microdilution, methicillin-resistant S. aureus (EMRSA 15); details: compared to NCTC 6571 or previous studies with fully sensitive strains
Procedure: All test strains were clinical isolates recovered from patients attending Hammersmith Hospital, London. Strains of Staphylococcus aureus (epidemic methicillin-resistant strain 15 (EMRSA 15) and vancomycin-resistant Enterococcus faecalis were broadly unselected isolates from local culture collections. However, strain selection was conducted so as to ensure that isolates were not consecutive isolates from individual patients.
Taurolidine MICs were performed using a sample of authenticated anhydrous micronised taurolidine batch number E/40522/4 (Geistlich Pharma AG, Wolhusen, Switzerland).
An aqueous stock solution of taurolidine was prepared to contain 2 g/100 ml taurolidine in water. This preparation was solubilized and sterilized by heating to 121° C. (15 psi) for 15 minutes.
Using this stock solution, serial doubling dilution of taurolidine were prepared in Unipath (Oxoid) Nutrient Broth Number 2 using 50 μl volumes in sterile round bottom microdilution trays. To these dilutions was added an equal volume of drug-free broth containing a suspension of the test organism to give a final inoculumn density of approximately 10^3 cfu. Inocula were prepared from overnight drug-free broth cultures of each test organism in Unipath (Oxoid) Nutrient Broth Number 2.
Final test concentrations of taurolidine were as follows:
All tests were incubated at 37 C for 18 hours. […]

Enterococcus faecium = assay: Taurolidine in vitro susceptibility, E. faecium (Example 4)
Excerpt: (§1) The in vitro susceptibility to taurolidine of a panel of clinical isolates and reference strains of Enterococcus faecium (n=20,7 strains vancomycin resistant) and Enterococcus faecalis (n-53,5 strains vancomycin resistant) has been examined. […] In all cases, the Minimum Bacteriocidal Concentration (MBC) of taurolidine was within 2 dilutions of the corresponding value for MIC confirming a bactericidal mode of action. In vitro resistance to taurolidine was not observed.

Enterococcus faecalis = assay: Taurolidine in vitro susceptibility, E. faecalis (Example 4)
Excerpt: as §1

With `O=S1(=O)CCN(CN2CCS(=O)(=O)NC2)CN1` [Taurolidine] the “difference in level of susceptibility to taurolidine” value [1] was “no difference in level of susceptibility to taurolidine”, the MIC (Enterococcus faecium; E. faecium strains, read-out: MIC range) was 95 to 375 µg/mL (≈ 334 to 1320 µM) and the MBC (Enterococcus faecium; E. faecium, VAN R strains, read-out: MBC, Avg.) was 446 µg/mL (≈ 1570 µM). It also gave an MBC (Enterococcus faecium; E. faecium, VAN R strains, read-out: MBC, Max.) of 500 µg/mL (≈ 1760 µM), an MBC (Enterococcus faecium; E. faecium, VAN R strains, read-out: MBC, Mean) of 446 µg/mL (≈ 1570 µM) and an MBC (Enterococcus faecium; E. faecium, VAN R strains, read-out: MBC, Median) of 500 µg/mL (≈ 1760 µM). It also gave an MBC (Enterococcus faecium; E. faecium, VAN R strains, read-out: MBC, Min.) of 375 µg/mL (≈ 1320 µM), an MBC (Enterococcus faecium; E. faecium, VAN R strains, read-out: MBC, Mode) of 500 µg/mL (≈ 1760 µM) and an MIC (Enterococcus faecium; E. faecium, VAN R strains, read-out: MIC, Avg.) of 161 µg/mL (≈ 566 µM). It also gave an MIC (Enterococcus faecium; E. faecium, VAN R strains, read-out: MIC, Max.) of 250 µg/mL (≈ 879 µM), an MIC (Enterococcus faecium; E. faecium, VAN R strains, read-out: MIC, Mean) of 161 µg/mL (≈ 566 µM) and an MIC (Enterococcus faecium; E. faecium, VAN R strains, read-out: MIC, Median) of 95 µg/mL (≈ 334 µM). It also gave an MIC (Enterococcus faecium; E. faecium, VAN R strains, read-out: MIC, Min.) of 95 µg/mL (≈ 334 µM), an MIC (Enterococcus faecium; E. faecium, VAN R strains, read-out: MIC, Mode) of 95 µg/mL (≈ 334 µM) and an MBC (Enterococcus faecium; E. faecium, VAN S strains, read-out: MBC, Avg.) of 666 µg/mL (≈ 2340 µM). For the same compound, the MBC (Enterococcus faecium; E. faecium, VAN S strains, read-out: MBC, Max.) was 1000 µg/mL (≈ 3520 µM), the MBC (Enterococcus faecium; E. faecium, VAN S strains, read-out: MBC, Mean) was 666 µg/mL (≈ 2340 µM) and the MBC (Enterococcus faecium; E. faecium, VAN S strains, read-out: MBC, Median) was 750 µg/mL (≈ 2640 µM). It also gave an MBC (Enterococcus faecium; E. faecium, VAN S strains, read-out: MBC, Min.) of 500 µg/mL (≈ 1760 µM), an MBC (Enterococcus faecium; E. faecium, VAN S strains, read-out: MBC, Mode) of 750 µg/mL (≈ 2640 µM) and an MIC (Enterococcus faecium; E. faecium, VAN S strains, read-out: MIC, Avg.) of 323 µg/mL (≈ 1140 µM). For the same compound, the MIC (Enterococcus faecium; E. faecium, VAN S strains, read-out: MIC, Max.) was 375 µg/mL (≈ 1320 µM), the MIC (Enterococcus faecium; E. faecium, VAN S strains, read-out: MIC, Mean) was 323 µg/mL (≈ 1140 µM) and the MIC (Enterococcus faecium; E. faecium, VAN S strains, read-out: MIC, Median) was 375 µg/mL (≈ 1320 µM). The MIC (Enterococcus faecium; E. faecium, VAN S strains, read-out: MIC, Min.) was 125 µg/mL (≈ 440 µM), the MIC (Enterococcus faecium; E. faecium, VAN S strains, read-out: MIC, Mode) was 375 µg/mL (≈ 1320 µM) and the MBC (Enterococcus faecium; E. faecium, all strains, read-out: MBC, Avg.) was 581 µg/mL (≈ 2040 µM). It also gave an MBC (Enterococcus faecium; E. faecium, all strains, read-out: MBC, Max.) of 1000 µg/mL (≈ 3520 µM), an MBC (Enterococcus faecium; E. faecium, all strains, read-out: MBC, Mean) of 581 µg/mL (≈ 2040 µM) and an MBC (Enterococcus faecium; E. faecium, all strains, read-out: MBC, Median) of 500 µg/mL (≈ 1760 µM). It also gave an MBC (Enterococcus faecium; E. faecium, all strains, read-out: MBC, Min.) of 375 µg/mL (≈ 1320 µM), an MBC (Enterococcus faecium; E. faecium, all strains, read-out: MBC, Mode) of 500 µg/mL (≈ 1760 µM) and an MIC (Enterococcus faecium; E. faecium, all strains, read-out: MIC, Avg.) of 260 µg/mL (≈ 914 µM). For the same compound, the MIC (Enterococcus faecium; E. faecium, all strains, read-out: MIC, Max.) was 375 µg/mL (≈ 1320 µM), the MIC (Enterococcus faecium; E. faecium, all strains, read-out: MIC, Mean) was 260 µg/mL (≈ 914 µM) and the MIC (Enterococcus faecium; E. faecium, all strains, read-out: MIC, Median) was 250 µg/mL (≈ 879 µM). For the same compound, the MIC (Enterococcus faecium; E. faecium, all strains, read-out: MIC, Min.) was 95 µg/mL (≈ 334 µM), the MIC (Enterococcus faecium; E. faecium, all strains, read-out: MIC, Mode) was 375 µg/mL (≈ 1320 µM) and the MIC (Enterococcus faecalis; E. faecalis strains, read-out: MIC range) was 125 to 500 µg/mL (≈ 440 to 1760 µM). The MBC (Enterococcus faecalis; E. faecalis, VAN R strains, read-out: MBC, Avg.) was 500 µg/mL (≈ 1760 µM), the MBC (Enterococcus faecalis; E. faecalis, VAN R strains, read-out: MBC, Max.) was 750 µg/mL (≈ 2640 µM) and the MBC (Enterococcus faecalis; E. faecalis, VAN R strains, read-out: MBC, Mean) was 500 µg/mL (≈ 1760 µM). The MBC (Enterococcus faecalis; E. faecalis, VAN R strains, read-out: MBC, Median) was 500 µg/mL (≈ 1760 µM), the MBC (Enterococcus faecalis; E. faecalis, VAN R strains, read-out: MBC, Min.) was 500 µg/mL (≈ 1760 µM) and the MBC (Enterococcus faecalis; E. faecalis, VAN R strains, read-out: MBC, Mode) was 500 µg/mL (≈ 1760 µM). The MIC (Enterococcus faecalis; E. faecalis, VAN R strains, read-out: MIC, Avg.) was 213 µg/mL (≈ 749 µM), the MIC (Enterococcus faecalis; E. faecalis, VAN R strains, read-out: MIC, Max.) was 375 µg/mL (≈ 1320 µM) and the MIC (Enterococcus faecalis; E. faecalis, VAN R strains, read-out: MIC, Mean) was 213 µg/mL (≈ 749 µM). The MIC (Enterococcus faecalis; E. faecalis, VAN R strains, read-out: MIC, Median) was 250 µg/mL (≈ 879 µM).
